This passage reports IC50 and inhibition results from publication PMC8060913, “The Calcium-Activated Chloride Channel TMEM16A is Inhibitied by Liquiritigenin” (Frontiers in Pharmacology, 2021).

Broadly, the IC50 is the point on the concentration scale where inhibition reaches its midpoint. As usually defined, the inhibition is the relative decrease from the control value, in per cent.

Read-outs that look alike come from different tables or passages of the source.

Common to all, as to assay type: cell-based
Experiment [1] has as its target T1, mouse TMEM16A (mTMEM16A, anoctamin 1) (Mus musculus, UniProt Q8BHY3).
T1 construct: gene Ano1
T1 sequence (Q8BHY3 1-960): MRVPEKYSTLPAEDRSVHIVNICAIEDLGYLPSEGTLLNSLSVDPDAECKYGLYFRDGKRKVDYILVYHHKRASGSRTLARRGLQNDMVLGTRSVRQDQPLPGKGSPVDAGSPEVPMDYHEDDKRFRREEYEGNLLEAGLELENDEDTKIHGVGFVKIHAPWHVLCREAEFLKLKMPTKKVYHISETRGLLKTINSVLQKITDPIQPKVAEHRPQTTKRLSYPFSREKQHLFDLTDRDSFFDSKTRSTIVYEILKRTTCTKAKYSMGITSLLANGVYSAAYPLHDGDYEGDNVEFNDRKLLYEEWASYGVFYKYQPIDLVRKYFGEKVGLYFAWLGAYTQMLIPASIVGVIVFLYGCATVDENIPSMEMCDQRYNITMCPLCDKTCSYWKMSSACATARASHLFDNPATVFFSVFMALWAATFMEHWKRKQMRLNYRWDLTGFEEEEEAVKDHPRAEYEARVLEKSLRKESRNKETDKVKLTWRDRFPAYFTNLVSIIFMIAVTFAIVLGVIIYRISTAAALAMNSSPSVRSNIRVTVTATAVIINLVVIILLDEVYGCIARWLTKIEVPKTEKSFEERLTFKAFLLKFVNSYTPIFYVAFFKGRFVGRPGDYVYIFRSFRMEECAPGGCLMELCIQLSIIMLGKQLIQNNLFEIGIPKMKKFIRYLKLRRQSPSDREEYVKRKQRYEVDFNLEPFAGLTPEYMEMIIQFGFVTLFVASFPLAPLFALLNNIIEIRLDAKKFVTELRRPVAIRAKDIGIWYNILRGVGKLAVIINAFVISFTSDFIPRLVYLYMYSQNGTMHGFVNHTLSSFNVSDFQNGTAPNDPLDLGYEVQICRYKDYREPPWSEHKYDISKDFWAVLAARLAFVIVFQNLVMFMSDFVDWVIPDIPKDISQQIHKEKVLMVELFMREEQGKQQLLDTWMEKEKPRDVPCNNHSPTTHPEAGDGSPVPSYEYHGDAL
Put plainly: whole-cell patch-clamp in transfected HEK293T cells, +[…] mV. In general terms: In patch-clamp work, channel activity is measured electrically.

The target of experiment [2] is T2, human TMEM16A (hTMEM16A, anoctamin 1) (Homo sapiens, UniProt Q5XXA6).
T2 construct: gene ANO1; untagged complete CDS
T2 sequence (Q5XXA6 1-986): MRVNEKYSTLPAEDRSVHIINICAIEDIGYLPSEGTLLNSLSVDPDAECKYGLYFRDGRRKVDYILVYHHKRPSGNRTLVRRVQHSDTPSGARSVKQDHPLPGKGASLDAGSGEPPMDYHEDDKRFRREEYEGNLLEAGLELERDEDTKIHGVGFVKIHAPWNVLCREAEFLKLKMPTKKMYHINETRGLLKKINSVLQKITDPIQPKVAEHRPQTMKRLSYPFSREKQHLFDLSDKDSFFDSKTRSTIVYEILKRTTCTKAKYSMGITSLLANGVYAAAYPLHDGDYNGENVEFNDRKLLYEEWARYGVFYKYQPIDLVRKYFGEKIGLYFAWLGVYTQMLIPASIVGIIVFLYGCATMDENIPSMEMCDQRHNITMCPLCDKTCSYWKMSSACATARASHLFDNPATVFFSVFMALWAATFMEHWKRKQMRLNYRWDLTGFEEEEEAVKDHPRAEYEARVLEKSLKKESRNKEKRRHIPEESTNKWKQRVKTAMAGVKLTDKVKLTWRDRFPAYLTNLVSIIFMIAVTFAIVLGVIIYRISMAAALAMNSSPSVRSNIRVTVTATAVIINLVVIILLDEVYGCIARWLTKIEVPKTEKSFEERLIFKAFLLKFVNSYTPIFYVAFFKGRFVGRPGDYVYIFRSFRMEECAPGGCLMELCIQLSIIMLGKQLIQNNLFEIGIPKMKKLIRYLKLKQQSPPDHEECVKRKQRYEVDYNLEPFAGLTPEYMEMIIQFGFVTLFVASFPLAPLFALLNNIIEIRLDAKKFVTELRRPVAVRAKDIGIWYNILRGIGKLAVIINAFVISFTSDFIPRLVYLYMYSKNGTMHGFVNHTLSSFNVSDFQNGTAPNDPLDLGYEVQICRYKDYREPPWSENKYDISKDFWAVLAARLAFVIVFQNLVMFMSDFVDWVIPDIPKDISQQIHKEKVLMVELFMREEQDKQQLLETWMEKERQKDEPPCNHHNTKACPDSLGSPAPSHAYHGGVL
Described as above.

Experiment [3] concerns the target T2, human TMEM16A (hTMEM16A, anoctamin 1). Put plainly: whole-cell patch-clamp in transfected HEK293T cells, % inhibition at […], +[…] mV. The conditions noted are these: HEK-293T.
Experiment [4] addresses T1, mouse TMEM16A (mTMEM16A, anoctamin 1). Described as above. The conditions noted are these: HEK-293T.

`O=C1C[C@@H](c2ccc(O)cc2)Oc2cc(O)ccc21` [liquiritigenin]: the IC50 in experiment [1] was 21.3 µM; in experiment [2], 12.9 µM.

Take `O=C1c2ccc(O)cc2OCC1c1ccc(O)cc1` (stereo not drawn) [dihydrodaidzein]: the IC50 came out at 178 µM in experiment [1] (read-out: IC50) and 251 µM in experiment [2] (read-out: IC50).

Consider `C[C@]12CC[C@@H]3c4ccc(O)cc4CC[C@H]3[C@@H]1C[C@@H](O)[C@@H]2O` [E3, estriol], for which the inhibition at 100 µM was found to be 43.5% in experiment [3] and 56.8% in experiment [4].
